Reference: patent publication US20120029187A1, “HALOALKYLSULFONANILIDE DERIVATIVE” (Nissan Chemical Industries, Ltd., priority 2009, published 2012)

What was measured:
Type in all cases: in vivo
bulrush [1] = assay: Test Example 2: herbicidal effects during the vegetation period under submerged conditions; settings: treatment during the vegetation period under submerged conditions; dose 2.52 g/a
Summary of the method: (§1)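 Barnyardgrass, bulrush and ducksalad were co-sown in alluvial soil flooded to 4 cm and grown in a greenhouse at 25 to 30° C. At the 1- or 2-leaf stage, water-diluted emulsifiable concentrates went onto the water surface at set doses (g/a). Herbicidal effect was scored three weeks later on a graded scale.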

ducksalad [2] = assay: as above; settings: treatment during the vegetation period under submerged conditions; dose 2.52 g/a
Summary of the method: as §1

barnyardgrass [3] = assay: as above; settings: treatment during the vegetation period under submerged conditions; dose 2.52 g/a
Summary of the method: as §1

large crabgrass [4] = assay: Test Example 4: herbicidal effect in foliage treatment
Summary of the method: (§2)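 Post-emergence foliar spray of water-diluted emulsifiable concentrate at predetermined doses (g per are), applied to plants 14 days after sowing in sterile diluvial soil (greenhouse, 25 to 30° C). Visual scale rating of effect taken 3 weeks later.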

wild oat [5] = assay: as above
Summary of the method: as §2

beadstraw = assay: as above
Summary of the method: as §2

common chickweed [6] = assay: as above
Summary of the method: as §2

giant foxtail [7] = assay: as above
Summary of the method: as §2

common lambsquater [8] = assay: as above
Summary of the method: as §2

Italian ryegrass [9] = assay: as above
Summary of the method: as §2

barnyardgrass [10] = assay: as above
Summary of the method: as §2

common ragweed [11] = assay: as above
Summary of the method: as §2

water foxtail [12] = assay: as above
Summary of the method: as §2

redroot pigweed [13] = assay: as above
Summary of the method: as §2

bulrush [14] = assay: Test Example 1: herbicidal effects in preemergence treatment under submerged conditions; settings: dose 2.52 g/a
Summary of the method: (§3)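 Alluvial soil flooded to 4 cm depth; barnyardgrass, bulrush and ducksalad sown and 2.5-leaf rice seedlings transplanted. Same day, water-diluted emulsifiable concentrates applied to the water surface at set doses (g/a). Kept at 25–30 °C in greenhouse; effects scored 0–5 by mortality after three weeks.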

ducksalad [15] = assay: as above; settings: dose 2.52 g/a
Summary of the method: as §3

barnyardgrass [16] = assay: as above; settings: dose 2.52 g/a
Summary of the method: as §3

large crabgrass [17] = assay: Test Example 3: herbicidal effects in soil treatment
Summary of the method: (§4)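 Seeds were sown in sterilized diluvial soil and covered with about 1.5 cm of soil. Compounds, formulated as emulsifiable concentrates and diluted with water, were sprayed evenly over the soil surface at set doses in g/a. Herbicidal effect was scored on a rating scale three weeks later.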

wild oat [18] = assay: as above; settings: dose 6.3 g/a
Summary of the method: as §4

common chickweed [19] = assay: as above
Summary of the method: as §4

giant foxtail [20] = assay: as above
Summary of the method: as §4

common lambsquater [21] = assay: as above
Summary of the method: as §4

Italian ryegrass [22] = assay: as above
Summary of the method: as §4

barnyardgrass [23] = assay: as above
Summary of the method: as §4

common ragweed [24] = assay: as above
Summary of the method: as §4

water foxtail [25] = assay: as above
Summary of the method: as §4

redroot pigweed [26] = assay: as above
Summary of the method: as §4

velvetleaf = assay: Test Example 4: herbicidal effect in foliage treatment; settings: dose 3.2 g/a, three weeks after application
Summary of the method: as §2

posumbu knotweed [27] = assay: as above; settings: dose 3.2 g/a, three weeks after application
Summary of the method: as §2

transplanted rice = assay: Test Example 1: preemergence treatment under submerged conditions, effect on crop; settings: dose 2.52 g/a
Summary of the method: as §3

posumbu knotweed [28] = assay: Test Example 3: herbicidal effects in soil treatment; settings: dose 3.2 g/a
Summary of the method: as §4

[29] = dose 6.3 g/a, three weeks after the application
[30] = dose 6.3 g/a, three weeks after application
[31] = dose 3.2 g/a, three weeks after application

## O=C1CCOCCN1Cc1ccccc1NS(=O)(=O)C(F)(F)F [Compound V-1]
Bulrush [1]
  B: bulrush, herbicidal effect (evaluation scale 0-5): 5 (mortality of 90% or above (nearly complete death))
Ducksalad [2]
  C: ducksalad, herbicidal effect (evaluation scale 0-5): 5 (mortality of 90% or above (nearly complete death))
Barnyardgrass [3]
  A: barnyardgrass, herbicidal effect (evaluation scale 0-5): 5 (mortality of 90% or above (nearly complete death))
Large crabgrass [4]; [29]
  D: large crabgrass, herbicidal effect: 4 (mortality of at least 70% and less than 90%)
Wild oat [5]; [29]
  F: wild oat, herbicidal effect: 0 (mortality of less than 5% (almost ineffective))
beadstraw; [29]
  O: beadstraw, herbicidal effect: 4 (mortality of at least 70% and less than 90%)
Common chickweed [6]; [29]
  N: common chickweed, herbicidal effect: 4 (mortality of at least 70% and less than 90%)
Giant foxtail [7]; [29]
  E: giant foxtail, herbicidal effect: 5 (mortality of 90% or above (nearly complete death))
Common lambsquater [8]; [29]
  L: common lambsquater, herbicidal effect: 4 (mortality of at least 70% and less than 90%)
Italian ryegrass [9]; [29]
  H: Italian ryegrass, herbicidal effect: 3 (mortality of at least 40% and less than 70%)
Barnyardgrass [10]; [29]
  A: barnyardgrass, herbicidal effect: 5 (mortality of 90% or above (nearly complete death))
Common ragweed [11]; [29]
  J: common ragweed, herbicidal effect: 5 (mortality of 90% or above (nearly complete death))
Water foxtail [12]; [29]
  G: water foxtail, herbicidal effect: 5 (mortality of 90% or above (nearly complete death))
Redroot pigweed [13]; [29]
  K: redroot pigweed, herbicidal effect: 1 (mortality of at least 5% and less than 20%)
Bulrush [14]
  B: bulrush, herbicidal effect (evaluation scale 0-5): 5 (mortality of 90% or above (nearly complete death))
Ducksalad [15]
  C: ducksalad, herbicidal effect (evaluation scale 0-5): 5 (mortality of 90% or above (nearly complete death))
Barnyardgrass [16]
  A: barnyardgrass, herbicidal effect (evaluation scale 0-5): 5 (mortality of 90% or above (nearly complete death))
Large crabgrass [17]; dose 6.3 g/a
  herbicidal effect, D: large crabgrass: 0 (mortality of less than 5% (almost ineffective))
Wild oat [18]
  herbicidal effect, F: wild oat: 3 (mortality of at least 40% and less than 70%)
Common chickweed [19]; dose 6.3 g/a
  herbicidal effect, N: common chickweed: 5 (mortality of 90% or above (nearly complete death))
Giant foxtail [20]; dose 6.3 g/a
  herbicidal effect, E: giant foxtail: 4 (mortality of at least 70% and less than 90%)
Common lambsquater [21]; dose 6.3 g/a
  herbicidal effect, L: common lambsquater: 5 (mortality of 90% or above (nearly complete death))
Italian ryegrass [22]; dose 6.3 g/a
  herbicidal effect, H: Italian ryegrass: 3 (mortality of at least 40% and less than 70%)
Barnyardgrass [23]; dose 6.3 g/a
  herbicidal effect, A: barnyardgrass: 5 (mortality of 90% or above (nearly complete death))
Common ragweed [24]; dose 6.3 g/a
  herbicidal effect, J: common ragweed: 5 (mortality of 90% or above (nearly complete death))
Water foxtail [25]; dose 6.3 g/a
  herbicidal effect, G: water foxtail: 5 (mortality of 90% or above (nearly complete death))
Redroot pigweed [26]; dose 6.3 g/a
  herbicidal effect, K: redroot pigweed: 4 (mortality of at least 70% and less than 90%)

## CCC(=O)N(c1ccccc1CN1COC(C)CC1=O)S(=O)(=O)C(F)(F)F (stereo not drawn) [II-5]
Bulrush [1]
  B: bulrush, herbicidal effect (evaluation scale 0-5): 5 (mortality of 90% or above (nearly complete death))
Ducksalad [2]
  C: ducksalad, herbicidal effect (evaluation scale 0-5): 5 (mortality of 90% or above (nearly complete death))
Barnyardgrass [3]
  A: barnyardgrass, herbicidal effect (evaluation scale 0-5): 5 (mortality of 90% or above (nearly complete death))
Large crabgrass [4]; [30]
  D: large crabgrass, herbicidal effect: 5 (mortality of 90% or above (nearly complete death))
Wild oat [5]; [30]
  F: wild oat, herbicidal effect: 0 (mortality of less than 5% (almost ineffective))
beadstraw; [30]
  O: beadstraw, herbicidal effect: 0 (mortality of less than 5% (almost ineffective))
Common chickweed [6]; [30]
  N: common chickweed, herbicidal effect: 3 (mortality of at least 40% and less than 70%)
Giant foxtail [7]; [30]
  E: giant foxtail, herbicidal effect: 5 (mortality of 90% or above (nearly complete death))
Common lambsquater [8]; [30]
  L: common lambsquater, herbicidal effect: 3 (mortality of at least 40% and less than 70%)
Italian ryegrass [9]; [30]
  H: Italian ryegrass, herbicidal effect: 3 (mortality of at least 40% and less than 70%)
Barnyardgrass [10]; [30]
  A: barnyardgrass, herbicidal effect: 5 (mortality of 90% or above (nearly complete death))
Common ragweed [11]; [30]
  J: common ragweed, herbicidal effect: 5 (mortality of 90% or above (nearly complete death))
Water foxtail [12]; [30]
  G: water foxtail, herbicidal effect: 5 (mortality of 90% or above (nearly complete death))
Redroot pigweed [13]; [30]
  K: redroot pigweed, herbicidal effect: 0 (mortality of less than 5% (almost ineffective))
Bulrush [14]
  B: bulrush, herbicidal effect (evaluation scale 0-5): 5 (mortality of 90% or above (nearly complete death))
Ducksalad [15]
  C: ducksalad, herbicidal effect (evaluation scale 0-5): 5 (mortality of 90% or above (nearly complete death))
Barnyardgrass [16]
  A: barnyardgrass, herbicidal effect (evaluation scale 0-5): 5 (mortality of 90% or above (nearly complete death))
Large crabgrass [17]; dose 6.3 g/a
  D: large crabgrass, herbicidal effect (evaluation scale 0-5): 5 (mortality of 90% or above (nearly complete death))
Wild oat [18]
  F: wild oat, herbicidal effect (evaluation scale 0-5): 0 (mortality of less than 5% (almost ineffective))
Common chickweed [19]; dose 6.3 g/a
  N: common chickweed, herbicidal effect (evaluation scale 0-5): 5 (mortality of 90% or above (nearly complete death))
Giant foxtail [20]; dose 6.3 g/a
  E: giant foxtail, herbicidal effect (evaluation scale 0-5): 3 (mortality of at least 40% and less than 70%)
Common lambsquater [21]; dose 6.3 g/a
  L: common lambsquater, herbicidal effect (evaluation scale 0-5): 4 (mortality of at least 70% and less than 90%)
Italian ryegrass [22]; dose 6.3 g/a
  H: Italian ryegrass, herbicidal effect (evaluation scale 0-5): 4 (mortality of at least 70% and less than 90%)
Barnyardgrass [23]; dose 6.3 g/a
  A: barnyardgrass, herbicidal effect (evaluation scale 0-5): 5 (mortality of 90% or above (nearly complete death))
Common ragweed [24]; dose 6.3 g/a
  J: common ragweed, herbicidal effect (evaluation scale 0-5): 4 (mortality of at least 70% and less than 90%)
Water foxtail [25]; dose 6.3 g/a
  G: water foxtail, herbicidal effect (evaluation scale 0-5): 5 (mortality of 90% or above (nearly complete death))
Redroot pigweed [26]; dose 6.3 g/a
  K: redroot pigweed, herbicidal effect (evaluation scale 0-5): 1 (mortality of at least 5% and less than 20%)

## CCOC(=O)N(c1ccccc1CN1COC(c2ccccc2)CC1=O)S(=O)(=O)C(F)(F)F (stereo not drawn) [II-10]
Bulrush [1]
  B: bulrush, herbicidal effect (evaluation scale 0-5): 5 (mortality of 90% or above (nearly complete death))
Ducksalad [2]
  C: ducksalad, herbicidal effect (evaluation scale 0-5): 5 (mortality of 90% or above (nearly complete death))
Barnyardgrass [3]
  A: barnyardgrass, herbicidal effect (evaluation scale 0-5): 4 (mortality of at least 70% and less than 90%)
Large crabgrass [4]; [31]
  D: large crabgrass, herbicidal effect: 0 (mortality of less than 5% (almost ineffective))
Wild oat [5]; [31]
  F: wild oat, herbicidal effect: 0 (mortality of less than 5% (almost ineffective))
beadstraw; [31]
  O: beadstraw, herbicidal effect: 3 (mortality of at least 40% and less than 70%)
Common chickweed [6]; [31]
  N: common chickweed, herbicidal effect: 4 (mortality of at least 70% and less than 90%)
Giant foxtail [7]; [31]
  E: giant foxtail, herbicidal effect: 3 (mortality of at least 40% and less than 70%)
Common lambsquater [8]; [31]
  L: common lambsquater, herbicidal effect: 3 (mortality of at least 40% and less than 70%)
Italian ryegrass [9]; [31]
  H: Italian ryegrass, herbicidal effect: 1 (mortality of at least 5% and less than 20%)
Barnyardgrass [10]; [31]
  A: barnyardgrass, herbicidal effect: 4 (mortality of at least 70% and less than 90%)
Common ragweed [11]; [31]
  J: common ragweed, herbicidal effect: 3 (mortality of at least 40% and less than 70%)
Water foxtail [12]; [31]
  G: water foxtail, herbicidal effect: 4 (mortality of at least 70% and less than 90%)
Redroot pigweed [13]; [31]
  K: redroot pigweed, herbicidal effect: 0 (mortality of less than 5% (almost ineffective))
velvetleaf
  I: velvetleaf, herbicidal effect: 4 (mortality of at least 70% and less than 90%)
Posumbu knotweed [27]
  M: posumbu knotweed, herbicidal effect: 4 (mortality of at least 70% and less than 90%)
Transplanted rice
  a: transplanted rice, effect on crop (evaluation scale 0-5): 0 (mortality of less than 5% (almost ineffective))
Bulrush [14]
  B: bulrush, herbicidal effect (evaluation scale 0-5): 5 (mortality of 90% or above (nearly complete death))
Ducksalad [15]
  C: ducksalad, herbicidal effect (evaluation scale 0-5): 5 (mortality of 90% or above (nearly complete death))
Barnyardgrass [16]
  A: barnyardgrass, herbicidal effect (evaluation scale 0-5): 5 (mortality of 90% or above (nearly complete death))
Large crabgrass [17]; dose 3.2 g/a
  D: large crabgrass, herbicidal effect (evaluation scale 0-5): 4 (mortality of at least 70% and less than 90%)
Common chickweed [19]; dose 3.2 g/a
  N: common chickweed, herbicidal effect (evaluation scale 0-5): 5 (mortality of 90% or above (nearly complete death))
Giant foxtail [20]; dose 3.2 g/a
  E: giant foxtail, herbicidal effect (evaluation scale 0-5): 4 (mortality of at least 70% and less than 90%)
Common lambsquater [21]; dose 3.2 g/a
  L: common lambsquater, herbicidal effect (evaluation scale 0-5): 3 (mortality of at least 40% and less than 70%)
Italian ryegrass [22]; dose 3.2 g/a
  H: Italian ryegrass, herbicidal effect (evaluation scale 0-5): 2 (mortality of at least 20% and less than 40%)
Barnyardgrass [23]; dose 3.2 g/a
  A: barnyardgrass, herbicidal effect (evaluation scale 0-5): 4 (mortality of at least 70% and less than 90%)
Common ragweed [24]; dose 3.2 g/a
  J: common ragweed, herbicidal effect (evaluation scale 0-5): 0 (mortality of less than 5% (almost ineffective))
Water foxtail [25]; dose 3.2 g/a
  G: water foxtail, herbicidal effect (evaluation scale 0-5): 5 (mortality of 90% or above (nearly complete death))
Redroot pigweed [26]; dose 3.2 g/a
  K: redroot pigweed, herbicidal effect (evaluation scale 0-5): 0 (mortality of less than 5% (almost ineffective))
Posumbu knotweed [28]
  M: posumbu knotweed, herbicidal effect (evaluation scale 0-5): 0 (mortality of less than 5% (almost ineffective))
